Measured values taken from patent US9340590B2 (priority 2011, dated 2016).
Positions of bridges follow the written chain, without caps; N, C: chain ends. Non-standard residues stand in square brackets, D forms with d. Residues, ends and D or L forms follow the SMILES beside them. *: point of attachment. Trp(1-Me) = Cn1cc(C[C@H](N)C(=O)O)c2ccccc21; 2Nal = N[C@@H](Cc1ccc2ccccc2c1)C(=O)O; Arg(Me) = CNC(=N)NCCC[C@H](N)C(=O)O; Cit = NC(=O)NCCC[C@H](N)C(=O)O; Pent4ynoyl = C#CCCC(=O)*; Abu = CC[C@H](N)C(=O)O

Key:
hNav1.7 = hNav1.7 (Homo sapiens, UniProt Q15858); test: cell-based; details: Nav1.7 Use IC50
hNav1.7, sequence (Q15858 whole entry, looked up): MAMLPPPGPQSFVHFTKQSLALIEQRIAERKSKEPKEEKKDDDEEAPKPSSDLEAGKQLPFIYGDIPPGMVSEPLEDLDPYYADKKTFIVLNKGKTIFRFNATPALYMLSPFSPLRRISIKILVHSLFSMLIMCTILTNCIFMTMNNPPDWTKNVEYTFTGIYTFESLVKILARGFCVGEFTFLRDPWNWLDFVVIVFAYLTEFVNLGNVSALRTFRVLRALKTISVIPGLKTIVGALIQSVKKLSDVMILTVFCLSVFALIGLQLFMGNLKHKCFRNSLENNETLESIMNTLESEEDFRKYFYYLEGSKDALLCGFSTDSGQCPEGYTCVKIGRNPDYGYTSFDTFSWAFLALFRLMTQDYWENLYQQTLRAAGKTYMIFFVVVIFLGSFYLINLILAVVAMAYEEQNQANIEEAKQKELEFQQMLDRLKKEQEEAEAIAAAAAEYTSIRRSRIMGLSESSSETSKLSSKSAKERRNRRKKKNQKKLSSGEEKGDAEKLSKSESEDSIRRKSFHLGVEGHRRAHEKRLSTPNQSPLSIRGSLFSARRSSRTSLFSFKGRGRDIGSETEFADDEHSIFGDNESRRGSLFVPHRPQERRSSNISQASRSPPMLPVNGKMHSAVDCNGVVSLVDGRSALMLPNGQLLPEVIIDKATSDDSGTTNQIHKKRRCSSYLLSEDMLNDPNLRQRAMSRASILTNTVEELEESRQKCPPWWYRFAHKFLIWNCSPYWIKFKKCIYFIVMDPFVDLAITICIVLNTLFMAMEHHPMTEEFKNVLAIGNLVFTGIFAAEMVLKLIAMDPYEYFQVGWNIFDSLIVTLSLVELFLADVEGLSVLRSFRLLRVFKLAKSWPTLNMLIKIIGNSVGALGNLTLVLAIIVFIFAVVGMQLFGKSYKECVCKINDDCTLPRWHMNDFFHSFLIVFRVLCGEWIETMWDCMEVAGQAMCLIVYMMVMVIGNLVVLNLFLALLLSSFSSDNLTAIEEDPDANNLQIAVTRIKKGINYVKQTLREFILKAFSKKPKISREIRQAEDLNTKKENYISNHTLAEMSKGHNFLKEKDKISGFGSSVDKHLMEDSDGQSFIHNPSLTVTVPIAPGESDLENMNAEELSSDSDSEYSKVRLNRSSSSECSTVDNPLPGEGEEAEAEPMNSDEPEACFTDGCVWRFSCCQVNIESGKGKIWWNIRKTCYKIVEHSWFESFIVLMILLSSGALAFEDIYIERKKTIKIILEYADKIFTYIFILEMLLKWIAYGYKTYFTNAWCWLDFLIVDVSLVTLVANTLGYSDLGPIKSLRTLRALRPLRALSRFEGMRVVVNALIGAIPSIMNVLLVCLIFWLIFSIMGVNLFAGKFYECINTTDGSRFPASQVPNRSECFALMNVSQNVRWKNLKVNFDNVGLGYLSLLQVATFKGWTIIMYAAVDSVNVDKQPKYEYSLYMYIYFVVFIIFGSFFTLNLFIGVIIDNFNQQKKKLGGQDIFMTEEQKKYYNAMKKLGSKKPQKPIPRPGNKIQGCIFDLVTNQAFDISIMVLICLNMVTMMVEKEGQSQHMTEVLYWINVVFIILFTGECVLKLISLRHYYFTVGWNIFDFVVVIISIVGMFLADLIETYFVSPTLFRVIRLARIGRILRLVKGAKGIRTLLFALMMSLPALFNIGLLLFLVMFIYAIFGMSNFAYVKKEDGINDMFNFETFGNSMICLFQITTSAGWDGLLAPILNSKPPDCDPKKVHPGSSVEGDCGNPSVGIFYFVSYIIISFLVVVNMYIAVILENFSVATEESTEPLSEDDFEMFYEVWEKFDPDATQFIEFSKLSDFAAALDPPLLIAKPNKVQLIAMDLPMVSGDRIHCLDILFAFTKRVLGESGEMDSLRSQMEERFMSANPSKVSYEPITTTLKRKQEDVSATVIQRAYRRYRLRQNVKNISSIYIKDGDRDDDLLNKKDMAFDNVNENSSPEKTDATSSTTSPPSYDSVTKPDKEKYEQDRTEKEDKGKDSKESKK

hNav1.5 = hNav1.5 (Homo sapiens, UniProt Q14524); test: cell-based
hNav1.5, sequence (Q14524 whole entry, looked up): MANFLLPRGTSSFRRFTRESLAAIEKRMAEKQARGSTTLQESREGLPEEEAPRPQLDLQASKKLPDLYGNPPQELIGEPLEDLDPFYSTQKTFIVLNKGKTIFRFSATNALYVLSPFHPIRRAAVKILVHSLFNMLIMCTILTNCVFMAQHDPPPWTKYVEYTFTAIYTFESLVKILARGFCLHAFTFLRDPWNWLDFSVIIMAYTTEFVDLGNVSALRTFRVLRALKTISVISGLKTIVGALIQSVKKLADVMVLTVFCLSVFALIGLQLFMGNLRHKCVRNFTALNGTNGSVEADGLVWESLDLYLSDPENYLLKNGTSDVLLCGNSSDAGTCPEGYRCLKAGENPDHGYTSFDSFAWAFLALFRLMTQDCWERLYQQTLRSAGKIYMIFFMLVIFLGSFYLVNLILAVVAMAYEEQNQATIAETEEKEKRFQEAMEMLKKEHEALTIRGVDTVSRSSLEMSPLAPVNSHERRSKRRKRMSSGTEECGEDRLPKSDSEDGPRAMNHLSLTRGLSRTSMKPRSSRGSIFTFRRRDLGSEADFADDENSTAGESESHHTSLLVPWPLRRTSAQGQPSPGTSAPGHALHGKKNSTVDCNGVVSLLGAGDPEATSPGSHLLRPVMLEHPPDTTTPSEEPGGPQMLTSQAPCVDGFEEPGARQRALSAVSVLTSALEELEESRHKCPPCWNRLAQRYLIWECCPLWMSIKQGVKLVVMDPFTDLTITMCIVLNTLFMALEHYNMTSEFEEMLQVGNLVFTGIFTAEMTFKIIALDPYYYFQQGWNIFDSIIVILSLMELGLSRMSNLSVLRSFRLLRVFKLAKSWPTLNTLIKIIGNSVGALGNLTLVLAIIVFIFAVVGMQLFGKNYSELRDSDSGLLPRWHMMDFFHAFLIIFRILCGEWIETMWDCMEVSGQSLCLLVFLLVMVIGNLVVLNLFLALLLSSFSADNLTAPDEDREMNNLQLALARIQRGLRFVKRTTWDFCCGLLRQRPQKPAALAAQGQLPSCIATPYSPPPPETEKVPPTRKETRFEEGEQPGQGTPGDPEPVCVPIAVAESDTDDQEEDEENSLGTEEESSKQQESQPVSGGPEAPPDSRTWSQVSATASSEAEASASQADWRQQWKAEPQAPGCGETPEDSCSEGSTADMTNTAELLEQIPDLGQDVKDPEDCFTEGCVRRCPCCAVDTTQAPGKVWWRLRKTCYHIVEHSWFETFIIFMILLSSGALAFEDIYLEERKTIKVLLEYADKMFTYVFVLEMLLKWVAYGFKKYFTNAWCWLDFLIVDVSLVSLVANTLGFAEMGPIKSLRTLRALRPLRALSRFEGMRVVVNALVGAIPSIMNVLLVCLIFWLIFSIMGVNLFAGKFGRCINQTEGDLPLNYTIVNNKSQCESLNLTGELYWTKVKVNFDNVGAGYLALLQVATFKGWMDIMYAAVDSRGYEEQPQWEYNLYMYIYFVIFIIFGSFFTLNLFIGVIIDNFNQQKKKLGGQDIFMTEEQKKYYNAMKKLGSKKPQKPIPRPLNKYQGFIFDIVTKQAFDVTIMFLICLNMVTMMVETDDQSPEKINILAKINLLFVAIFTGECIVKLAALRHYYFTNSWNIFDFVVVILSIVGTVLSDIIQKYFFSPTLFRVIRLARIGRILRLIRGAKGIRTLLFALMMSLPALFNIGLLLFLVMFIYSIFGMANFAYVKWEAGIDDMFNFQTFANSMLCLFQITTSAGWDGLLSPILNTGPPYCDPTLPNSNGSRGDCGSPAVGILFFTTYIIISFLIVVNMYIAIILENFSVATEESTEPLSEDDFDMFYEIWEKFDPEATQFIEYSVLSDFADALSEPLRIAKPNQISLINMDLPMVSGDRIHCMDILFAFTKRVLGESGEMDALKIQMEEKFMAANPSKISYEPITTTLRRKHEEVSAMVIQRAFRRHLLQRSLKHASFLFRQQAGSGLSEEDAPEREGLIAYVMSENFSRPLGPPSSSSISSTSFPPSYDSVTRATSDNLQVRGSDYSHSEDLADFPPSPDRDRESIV

## C#CCCC(=O)N[C@@H](CC(=O)O)C(=O)N[C@H]1CSSC[C@@H]2NC(=O)[C@@H]3CSSC[C@@H](C(=O)N[C@@H](CCCCN)C(=O)N[C@@H](Cc4ccc(O)cc4)C(=O)N[C@H](C(=O)N[C@@H](Cc4ccccc4)C(N)=O)C(C)C)NC(=O)[C@H](Cc4c[nH]c5ccccc45)NC(=O)[C@H](CCCNC(=N)N)NC(=O)[C@H](Cc4c[nH]cn4)NC(=O)[C@H]([C@@H](C)O)NC(=O)[C@H](CCCNC(=N)N)NC(=O)[C@H](CO)NC(=O)[C@H](CSSC[C@H](NC(=O)[C@H](CCCCN)NC(=O)[C@H](CCCNC(=N)N)NC(=O)[C@H](Cc4ccccc4)NC(=O)[C@H](C)NC(=O)CNC(=O)[C@H](CC(C)C)NC1=O)C(=O)N[C@@H]([C@@H](C)CC)C(=O)N1CCC[C@H]1C(=O)N[C@@H](CC(=O)O)C(=O)N[C@@H](CC)C(=O)N[C@@H](CC(=O)O)C(=O)N[C@@H](CCCCN)C(=O)N3)NC(=O)[C@H](C(C)C)NC(=O)[C@H](CC(C)C)NC(=O)[C@H](CC(N)=O)NC(=O)[C@@H]1CCCN1C(=O)[C@H](CCCNC(=N)N)NC2=O (Pent4ynoyl-DCLGAFRKCIPD[Abu]DKCCRPNLVCSRTHRWCKYVF-NH2; disulfide 2-17, 9-23, 16-30)
hNav1.7
  IC50: 4 nM
hNav1.5
  IC50: > 10000 nM

## CC[C@H](C)[C@@H]1NC(=O)[C@@H]2CSSC[C@@H]3NC(=O)[C@H](C(C)C)NC(=O)[C@H](CC(C)C)NC(=O)[C@H](CC(N)=O)NC(=O)[C@@H]4CCCN4C(=O)[C@H](CCCNC(=N)N)NC(=O)[C@H](CSSC[C@H](NC(=O)[C@@H](N)CC(=O)O)C(=O)N[C@@H](CC(C)C)C(=O)NCC(=O)N[C@@H](CCSC)C(=O)N[C@@H](CCSC)C(=O)N[C@@H](CCCNC(=N)N)C(=O)N[C@@H](CCCCN)C(=O)N2)NC(=O)[C@H](CSSC[C@@H](C(=O)N[C@@H](CCCCN)C(=O)N[C@@H](Cc2cn(C)c4ccccc24)C(=O)N[C@H](C(=O)N[C@@H](Cc2ccccc2)C(N)=O)C(C)C)NC(=O)[C@H](Cc2c[nH]c4ccccc24)NC(=O)[C@H](CCCCN)NC(=O)[C@H](Cc2c[nH]cn2)NC(=O)[C@H]([C@@H](C)O)NC(=O)[C@H](CCCNC(=N)N)NC(=O)[C@H](CO)NC3=O)NC(=O)[C@H](CCCCN)NC(=O)[C@H](CC(=O)O)NC(=O)[C@H](CC(N)=O)NC(=O)[C@H](CC(=O)O)NC(=O)[C@@H]2CCCN2C1=O [[Met5;1′NMeW32]GpTx-1(1-34)] (H-DCLGMMRKCIPDNDKCCRPNLVCSRTHKWCK[Trp(1-Me)]VF-NH2; disulfide 2-17, 9-23, 16-30)
hNav1.7
  IC50: 7 nM
hNav1.5
  IC50: 14800 nM

## CC[C@H](C)[C@@H]1NC(=O)[C@@H]2CSSC[C@@H]3NC(=O)[C@H](C(C)C)NC(=O)[C@H](CC(C)C)NC(=O)[C@H](CC(N)=O)NC(=O)[C@@H]4CCCN4C(=O)[C@H](CCCNC(=N)N)NC(=O)[C@H](CSSC[C@H](NC(=O)[C@@H](N)CC(=O)O)C(=O)N[C@@H](CC(C)C)C(=O)NCC(=O)N[C@@H](C(C)C)C(=O)N[C@@H](CCSC)C(=O)N[C@@H](CCCNC(=N)N)C(=O)N[C@@H](CCCCN)C(=O)N2)NC(=O)[C@H](CSSC[C@@H](C(=O)N[C@@H](CCCCN)C(=O)N[C@@H](Cc2ccc(O)cc2)C(=O)N[C@H](C(=O)N[C@@H](Cc2ccccc2)C(N)=O)C(C)C)NC(=O)[C@H](Cc2c[nH]c4ccccc24)NC(=O)[C@H](CCCCN)NC(=O)[C@H](Cc2c[nH]cn2)NC(=O)[C@H]([C@@H](C)O)NC(=O)[C@H](CCCNC(N)=O)NC(=O)[C@H](CO)NC3=O)NC(=O)[C@H](CCCCN)NC(=O)[C@H](CC(=O)O)NC(=O)[C@H](CC(N)=O)NC(=O)[C@H](CC(=O)O)NC(=O)[C@@H]2CCCN2C1=O [[Val5;Cit25]GpTx-1(1-34)] (H-DCLGVMRKCIPDNDKCCRPNLVCS[Cit]THKWCKYVF-NH2; disulfide 2-17, 9-23, 16-30)
hNav1.7
  IC50: 28 nM
hNav1.5
  IC50: > 10000 nM

## CC[C@H](C)[C@@H]1NC(=O)[C@@H]2CSSC[C@@H]3NC(=O)[C@H](C(C)C)NC(=O)[C@H](CC(C)C)NC(=O)[C@H](CC(N)=O)NC(=O)[C@@H]4CCCN4C(=O)[C@H](CCCNC(=N)N)NC(=O)[C@H](CSSC[C@H](NC(=O)[C@@H](N)CC(=O)O)C(=O)N[C@@H](CC(C)C)C(=O)NCC(=O)NC(C)(C)C(=O)N[C@@H](CC(C)C)C(=O)N[C@@H](CCCNC(=N)N)C(=O)N[C@@H](CCCCN)C(=O)N2)NC(=O)[C@H](CSSC[C@@H](C(=O)N[C@@H](CCCCN)C(=O)N[C@@H](Cc2ccc(O)cc2)C(=O)N[C@H](C(=O)N[C@@H](Cc2ccccc2)C(N)=O)C(C)C)NC(=O)[C@H](Cc2c[nH]c4ccccc24)NC(=O)[C@H](CCCCN)NC(=O)[C@H](Cc2c[nH]cn2)NC(=O)[C@H]([C@@H](C)O)NC(=O)[C@H](CCCNC(=N)N)NC(=O)[C@H](CO)NC3=O)NC(=O)[C@H](CCCCN)NC(=O)[C@H](CC(=O)O)NC(=O)[C@H](CC(N)=O)NC(=O)[C@H](CC(=O)O)NC(=O)[C@@H]2CCCN2C1=O [[Aib5;Leu6]GpTx-1(1-34)]
hNav1.7
  IC50: 20 nM
hNav1.5
  IC50: > 10000 nM

## CC[C@H](C)[C@@H]1NC(=O)[C@@H]2CSSC[C@@H]3NC(=O)[C@H](C(C)C)NC(=O)[C@H](CC(C)C)NC(=O)[C@H](CC(N)=O)NC(=O)[C@@H]4CCCN4C(=O)[C@H](CCCNC(=N)N)NC(=O)[C@H](CSSC[C@H](NC(=O)[C@@H](N)CC(=O)O)C(=O)N[C@@H](CC(C)C)C(=O)NCC(=O)N[C@@H](Cc4ccccc4)C(=O)N[C@@H](CCSC)C(=O)N[C@@H](CCCNC(=N)N)C(=O)N[C@@H](CCCCN)C(=O)N2)NC(=O)[C@H](CSSC[C@@H](C(=O)N[C@@H](CCCCN)C(=O)N[C@@H](Cc2ccc(O)cc2)C(=O)N[C@H](C(=O)N[C@@H](Cc2ccccc2)C(N)=O)C(C)C)NC(=O)[C@H](Cc2ccc4ccccc4c2)NC(=O)[C@H](CCCCN)NC(=O)[C@H](Cc2c[nH]cn2)NC(=O)[C@H]([C@@H](C)O)NC(=O)[C@H](CCCNC(=N)N)NC(=O)[C@H](CO)NC3=O)NC(=O)[C@H](CCCCN)NC(=O)[C@H](CC(=O)O)NC(=O)[C@H](CC(N)=O)NC(=O)[C@H](CC(=O)O)NC(=O)[C@@H]2CCCN2C1=O [[2-Nal29]GpTx-1(1-34)] (H-DCLGFMRKCIPDNDKCCRPNLVCSRTHK[2Nal]CKYVF-NH2; disulfide 2-17, 9-23, 16-30)
hNav1.7
  IC50: 66 nM
hNav1.5
  IC50: > 10000 nM

## CC[C@H](C)[C@@H]1NC(=O)[C@@H]2CSSC[C@@H]3NC(=O)[C@H](C(C)C)NC(=O)[C@H](CC(C)C)NC(=O)[C@H](CC(N)=O)NC(=O)[C@@H]4CCCN4C(=O)[C@H](CCCNC(=N)N)NC(=O)[C@H](CSSC[C@H](NC(=O)[C@@H](N)CC(=O)O)C(=O)N[C@@H](CC(C)C)C(=O)NCC(=O)N[C@@H](C)C(=O)N[C@@H](CCSC)C(=O)N[C@@H](CCCNC(=N)N)C(=O)N[C@@H](CCCCN)C(=O)N2)NC(=O)[C@H](CSSC[C@@H](C(=O)N[C@@H](CCCCN)C(=O)N[C@@H](Cc2ccc(O)cc2)C(=O)N[C@H](C(=O)N[C@@H](Cc2ccccc2)C(N)=O)C(C)C)NC(=O)[C@H](Cc2c[nH]c4ccccc24)NC(=O)[C@H](CCCNC(=N)NC)NC(=O)[C@H](Cc2c[nH]cn2)NC(=O)[C@H]([C@@H](C)O)NC(=O)[C@H](CCCNC(=N)N)NC(=O)[C@H](CO)NC3=O)NC(=O)[C@H](CCCCN)NC(=O)[C@H](CC(=O)O)NC(=O)[C@H](CC(N)=O)NC(=O)[C@H](CC(=O)O)NC(=O)[C@@H]2CCCN2C1=O [[Ala5;R(Me)28]GpTx-1(1-34)] (H-DCLGAMRKCIPDNDKCCRPNLVCSRTH[Arg(Me)]WCKYVF-NH2; disulfide 2-17, 9-23, 16-30)
hNav1.7
  IC50: 51 nM
hNav1.5
  IC50: > 10000 nM
